Like-named read-outs stand apart in the source and are kept apart here. One block for each molecule: values may come before it. Residues, ends and D or L forms follow the SMILES beside them.
Tests used:
MDA-MB-468 = details: 24 h
Description: (§1) Cells were plated at 5000 cells/well (cancer cells) or 10,000 cells/well (PBMCs) in a 96-well plate and allowed to attach for 24 h. Cells were then treated with various concentrations of compounds for the times indicated in the different figures. At each time point, the viability of cells was measured using MTT assay. In brief, each well was treated with 20 µL of MTT reagent (5 mg/mL in 1x DPBS) and incubated at 37 °C for 3 h. After 3 h, 100 µL of MTT solvent (90% Isopropanol, 10% Triton X-and 0.4% 1M HCl) was added to each well and the plate was covered from light while shaking for 20 min. The absorbance of solubilized MTT reagent was measured using spectrophotometer at 590 nm. In some experiments with PBMCs, the ATP assay was used to assess cell viability by following manufacture’s instruction. […] Cells were then incubated at 37 °C for the indicated time points on the figure and then treated with equivalent volume of CellTiter-Glo reagent. The plate was rocked for 10 min and luminescence intensity was read using spectrophotometer.

MDA-MB-231 = details: 24 h
Description: as §1

ZR-75-1 = details: 24 h
Description: as §1

T47D = details: 24 h
Description: as §1

SKBR3 = details: 24 h
Description: as §1

MCF7 = details: 24 h
Description: as §1

MCF7-G11-TR1 = details: 24 h
Description: as §1

MCF7-G11-TR5 = details: 24 h
Description: as §1

PBMCs = details: 24 h
Description: as §1

MCF-10a = details: 24 h
Description: as §1

[1] = system: recombinant BST-2 (rBST-2); test: UV absorbance (230 nm) centrifugal filter binding assay; details: 2 mg/mL B18L, 1 mg/mL rBST-2, 37 °C 45 min, 3000 NMWL filter, 13,000 rpm 1 h, UV 230 nm
Description: To validate the MD simulation data, we used UV absorbance based assay to assess the binding affinity of B18L to BST-2 (B18L•BST-2). Following incubation of B18L with rBST-2 or controls (B18L alone and rBST-2 alone) at 37 °C for 45 min, each compound or the B18L•BST-2 mixture was placed in centrifugal filters and spun at 13,000 rpm for 1 h (Figure 2I). Absorbance of compounds (i) prior to addition to the filter (input), (ii) on the apical side of the filter (retained), (iii) in the collection tube (flow through) were obtained and converted to compound concentration using the standard curves (Figure 2J).
B18L (MW = 1.683 kDa), the rBST-2 (MW = 5.832 kDa) and the mixture of B18L and rBST-2 (B18L•BST-2) were titrated with UV spectroscopy at 230 nm to obtain the standard curve. 2 mg/mL of B18L and 1 mg/mL of rBST-2 were preincubated at 37 °C for 45 min. 200 μL mixture was then subjected to the ultracentrifuge tube with 3000 NMWL filter and centrifuged at 13,000 rpm for 1 h. Absorbance of the compounds i) before spin designated as input, ii) compounds left on the apical side of the membrane designated as retained and iii) compounds in the basal side of the tube designated as the flow through were measured with UV spectroscopy. The standard curve was used to extrapolate protein concentrations from the absorbance measurements.

- IC50 (MDA-MB-468): 16.6 ± 1.5 µM
- IC50 (MDA-MB-231): 18.6 ± 2.4 µM
- IC50 (ZR-75-1): 10.1 ± 1.8 µM
- IC50 (T47D): > 148 µM
- IC50 (SKBR3): 18.1 ± 4.7 µM
- IC50 (MCF7): 16 ± 1.6 µM
- IC50 (MCF7-G11-TR1): 10.8 ± 2 µM
- IC50 (MCF7-G11-TR5): 16.1 ± 4.9 µM
Molecule: CC[C@H](C)[C@H](NC(=O)CN)C(=O)NCC(=O)N[C@@H](CCCCN)C(=O)N[C@@H](C)C(=O)N[C@H](C(=O)N[C@@H](C)C(=O)N[C@@H](CCCCN)C(=O)N[C@@H](C)C(=O)N[C@H](C(=O)N[C@@H](C)C(=O)N[C@@H](CS)C(=O)N[C@H](C(=O)N[C@@H](C)C(=O)N[C@@H](CCCCN)C(=O)N[C@@H](C)C(=O)N[C@H](C(=O)N[C@@H](C)C(=O)O)[C@@H](C)CC)[C@@H](C)CC)[C@@H](C)CC)[C@@H](C)CC [B18I] (H-GIGKAIAKAIACIAKAIA-OH)

- IC50 (MDA-MB-468; MDA-MB-468 (Basal A), MTT): > 131 µM
- IC50 (MDA-MB-231): > 131 µM
- IC50 (ZR-75-1): > 131 µM
- IC50 (T47D): > 131 µM
- IC50 (MCF7; MCF7 (drug-sensitive), MTT): > 131 µM
- IC50 (MCF7-G11-TR1): > 131 µM
- IC50 (MCF7-G11-TR5): > 131 µM
Molecule: CSCC[C@H](NC(=O)[C@@H](NC(=O)[C@@H](NC(=O)[C@H](Cc1c[nH]cn1)NC(=O)[C@H](CC(N)=O)NC(=O)[C@H](CS)NC(=O)[C@@H](NC(=O)[C@H](C)NC(=O)[C@H](C)NC(=O)[C@H](CCC(N)=O)NC(=O)[C@H](C)NC(=O)[C@H](CCCCN)NC(=O)[C@@H](NC(=O)[C@H](CCCCN)NC(=O)[C@H](CCC(N)=O)NC(=O)[C@H](Cc1ccccc1)NC(=O)CN)C(C)C)[C@@H](C)O)[C@@H](C)O)C(C)C)C(=O)N[C@@H](C)C(=O)O [B18K] (H-GFQKVKAQAATCNHTVMA-OH; N-terminus and C-terminus assumed)

Continued, molecule first:

Molecule: CC(C)C[C@H](NC(=O)[C@H](C)NC(=O)[C@H](CCCCN)NC(=O)[C@H](C)NC(=O)[C@H](CC(C)C)NC(=O)[C@H](CS)NC(=O)[C@H](C)NC(=O)[C@H](CC(C)C)NC(=O)[C@H](C)NC(=O)[C@H](CCCCN)NC(=O)[C@H](C)NC(=O)[C@H](CCCCN)NC(=O)[C@H](C)NC(=O)[C@H](CCCCN)NC(=O)[C@H](CCC(N)=O)NC(=O)[C@H](Cc1ccccc1)NC(=O)CN)C(=O)N[C@@H](C)C(=O)O [B18KA] (H-GFQKAKAKALACLAKALA-OH)
- IC50 (MDA-MB-468): 136 ± 9.3 µM
- IC50 (MDA-MB-231): 83.7 ± 20.1 µM
- IC50 (ZR-75-1): 58.9 ± 2 µM
- IC50 (T47D): 78.5 ± 20.9 µM
- IC50 (SKBR3): 43.5 ± 11.5 µM
- IC50 (MCF7): 61.8 ± 3.9 µM
- IC50 (MCF7-G11-TR1): 61.8 ± 5.1 µM
- IC50 (MCF7-G11-TR5): 56.4 ± 5 µM

Molecule: CSCC[C@H](NC(=O)[C@@H](NC(=O)[C@@H](NC(=O)[C@H](Cc1c[nH]cn1)NC(=O)[C@H](CC(C)C)NC(=O)[C@H](CS)NC(=O)[C@@H](NC(=O)[C@H](CC(C)C)NC(=O)[C@H](C)NC(=O)[C@H](CCC(N)=O)NC(=O)[C@H](C)NC(=O)[C@H](CCCCN)NC(=O)[C@@H](NC(=O)[C@H](CCCCN)NC(=O)[C@H](CCC(N)=O)NC(=O)[C@H](Cc1ccccc1)NC(=O)CN)C(C)C)[C@@H](C)O)[C@@H](C)O)C(C)C)C(=O)N[C@@H](C)C(=O)O [B18KL] (H-GFQKVKAQALTCLHTVMA-OH; N-terminus and C-terminus assumed)
- IC50 (MDA-MB-468): > 128 µM
- IC50 (MDA-MB-231): > 128 µM
- IC50 (ZR-75-1): > 128 µM
- IC50 (T47D): > 128 µM
- IC50 (SKBR3): > 128 µM
- IC50 (MCF7): > 128 µM
- IC50 (MCF7-G11-TR1): > 128 µM
- IC50 (MCF7-G11-TR5): > 128 µM

Molecule: CC(C)C[C@H](NC(=O)CN)C(=O)NCC(=O)N[C@@H](CCCCN)C(=O)N[C@@H](C)C(=O)N[C@@H](CC(C)C)C(=O)N[C@@H](C)C(=O)N[C@@H](CCCCN)C(=O)N[C@@H](C)C(=O)N[C@@H](CC(C)C)C(=O)N[C@@H](C)C(=O)N[C@@H](CS)C(=O)N[C@@H](CC(C)C)C(=O)N[C@@H](C)C(=O)N[C@@H](CCCCN)C(=O)N[C@@H](C)C(=O)N[C@@H](CC(C)C)C(=O)N[C@@H](C)C(=O)O [B18L] (H-GLGKALAKALACLAKALA-OH)
- IC50 (MDA-MB-468): 12.4 ± 1.4 µM
- IC50 (MDA-MB-231): 7.2 ± 0.8 µM
- IC50 (ZR-75-1): 5.2 ± 1 µM
- IC50 (T47D): 17.5 ± 6.5 µM
- IC50 (SKBR3): 7.2 ± 1 µM
- IC50 (MCF7): 5.9 ± 0.5 µM
- IC50 (MCF7-G11-TR1): 6.2 ± 0.8 µM
- IC50 (MCF7-G11-TR5): 3.8 ± 0.3 µM
- IC50 (PBMCs): 39.8 ± 3.8 µM
- IC50 (MCF-10a): 17.2 ± 6.4 µM

B1: BST-2: recombinant BST-2 (MW = 5.832 kDa), extracellular domain, binding partner and control (protein, UniProt Q10589 49-161, looked up)
extracellular domain: NSEACRDGLRAVMECRNVTHLLQQELTEAQKGFQDVEAQAATCNHTVMALMASLDAEKAQGQKKVEELEGEITTLNHKLQDASAEVERLRRENQVLSVRIADKKYYPSSQDSS
modifications: extracellular domain
- in the flow-through [1]: 21%
- retained on the apical side of the filter [1]: 78%

Source: PMC7563317, “Development of a Cationic Amphiphilic Helical Peptidomimetic (B18L) As A Novel Anti-Cancer Drug Lead” (Cancers, 2020)
